Measurements reported in DBAASP.
In brackets after ≈: the same amount, converted by molar mass. Blank lines part the entries; values can stand above or below the compound they belong to.

Key:
Assay in all cases: ≥ marks a high value that may be exact or a test limit, other limits are often not marked, values filed in µg/mL are converted to µM
[1] = system: Candida tropicalis 092422
[2] = system: Legionella pneumophila Lens
Bacillus subtilis JC443 = system: Bacillus subtilis JC443
Escherichia coli JC113 = system: Escherichia coli JC113
[3] = system: Pseudomonas aeruginosa JC115
[4] = system: Staphylococcus aureus JC114
Escherichia coli K88 = system: Escherichia coli K88
[5] = system: Escherichia coli O157:H7 CICC 21530
[6] = system: Lacticaseibacillus rhamnosus 1.0911
[7] = system: Lacticaseibacillus rhamnosus 1.0936
[8] = system: Lacticaseibacillus rhamnosus 1.9021
[9] = system: Lacticaseibacillus rhamnosus 8014
[10] = system: Pseudomonas aeruginosa ATCC 27853
[11] = system: Pseudomonas aeruginosa PAO1
[12] = system: Salmonella enterica subsp. enterica serovar Choleraesuis CVCC 503
[13] = system: Salmonella enterica subsp. enterica serovar Pullorum C79-13
[14] = system: Salmonella enterica subsp. enterica serovar Typhimurium ATCC 14028
[15] = system: Staphylococcus aureus ATCC 29213
[16] = system: Staphylococcus aureus ATCC 43300
[17] = system: Staphylococcus epidermidis ATCC 12228
[18] = system: Streptococcus agalactiae BNCC 185941
[19] = system: Bacillus subtilis KCTC 1998
[20] = system: Candida albicans KCTC 7270
[21] = system: Escherichia coli ATCC 25922
[22] = system: Escherichia coli CCARM 1229
[23] = system: Escherichia coli CCARM 1238
[24] = system: Listeria monocytogenes KCTC 3710
[25] = system: Pseudomonas aeruginosa 4007
[26] = system: Pseudomonas aeruginosa 4891
[27] = system: Salmonella typhimurium KCTC 1926
[28] = system: Staphylococcus aureus ATCC 25923
[29] = system: Staphylococcus aureus CCARM 3090
[30] = system: Staphylococcus aureus CCARM 3518
[31] = system: Trichosporon beigelii KCTC 7707
Escherichia coli D31 = system: Escherichia coli D31
[32] = system: Klebsiella pneumoniae ATCC 700603
[33] = system: Pseudomonas aeruginosa ATCC 10145
[34] = system: Staphylococcus aureus ATCC 27660
[35] = system: Candida albicans IOC 4558
[36] = system: Candida tropicalis IOC 4560
Cladosporium sp. = system: Cladosporium sp.
Cryptococcus neoformans = system: Cryptococcus neoformans
Escherichia coli SBS 363 = system: Escherichia coli SBS 363
Micrococcus luteus A270 = system: Micrococcus luteus A270
Penicillium expansum = system: Penicillium expansum

Compound: CC[C@H](C)[C@H](NC(=O)[C@H](C)NC(=O)[C@@H]1CCCN1C(=O)[C@@H](NC(=O)[C@@H](N)Cc1ccccc1)C(C)C)C(=O)N[C@@H](CC(C)C)C(=O)N[C@H]1CSSC[C@@H](C(=O)O)NC(=O)[C@H]([C@@H](C)O)NC(=O)[C@H](CCCCN)NC(=O)[C@H](CC(C)C)NC(=O)[C@H]([C@@H](C)CC)NC(=O)[C@H](CO)NC1=O [FVPAILCSILKTC]
MIC [1]: ≥ 71 µM

Compound: CC[C@H](C)[C@H](NC(=O)[C@H](CC(C)C)NC(=O)CNC(=O)[C@H](CCCCN)NC(=O)[C@@H](NC(=O)[C@@H](NC(=O)[C@H](CCC(=O)O)NC(=O)[C@H](Cc1ccccc1)NC(=O)[C@@H](NC(=O)[C@H](CCCCN)NC(=O)[C@H](C)NC(=O)[C@@H](NC(=O)[C@@H](NC(=O)[C@H](CC(=O)O)NC(=O)[C@H](C)NC(=O)[C@@H](N)CCSC)C(C)C)[C@@H](C)CC)[C@@H](C)CC)[C@@H](C)CC)C(C)C)C(=O)N[C@@H](CC(=O)O)C(=O)N[C@@H](CCC(N)=O)C(=O)N[C@@H](Cc1ccccc1)C(=O)N[C@H](C(=O)N[C@@H](CCC(N)=O)C(=O)N[C@@H](CCCCN)C(=O)O)[C@@H](C)O [MADVIAKIFEIVKGLIDQFTQK]
MIC [2]: 1.85 µM (≈ 4.64 µg/mL)

Compound: NC(=O)[C@H](Cc1ccccc1)NC(=O)[C@@H]1CSSC[C@H](NC(=O)[C@H](Cc2ccccc2)NC(=O)[C@H](Cc2ccccc2)NC(=O)[C@@H](N)Cc2ccccc2)C(=O)N[C@@H](CO)C(=O)N[C@@H](CCCN=C(N)N)C(=O)N1 [FFFCSRCF]
MIC (Bacillus subtilis JC443): ≥ 171 µM
MIC (Escherichia coli JC113): ≥ 152 µM
MIC [3]: ≥ 157 µM
MIC [4]: ≥ 180 µM

Compound: CC[C@H](C)[C@H](NC(=O)CNC(=O)[C@H](CCC(N)=O)NC(=O)[C@H](CO)NC(=O)[C@@H](NC(=O)[C@H](CCCCN)NC(=O)[C@H](CCCCN)NC(=O)[C@H](CC(C)C)NC(=O)[C@H](C)NC(=O)[C@H](CC(N)=O)NC(=O)[C@H](CC(C)C)NC(=O)CN)C(C)C)C(=O)N[C@@H](Cc1cnc[nH]1)C(=O)N[C@@H](CCC(=O)O)C(=O)N[C@@H](CO)C(=O)N[C@H](C(=O)N[C@@H](CCCCN)C(=O)N[C@@H](CC(C)C)C(=O)N[C@H](C(=O)N[C@@H](CC(N)=O)C(=O)N[C@@H](CC(N)=O)C(=O)N[C@@H](Cc1cnc[nH]1)C(=O)N[C@H](C(=O)N[C@@H](CCC(N)=O)C(N)=O)C(C)C)[C@@H](C)CC)[C@@H](C)CC [GLNALKKVSQGIHESIKLINNHVQ]
MIC [19]: ≥ 32 µM
MIC [20]: ≥ 64 µM
MIC [21]: 16 µM (≈ 42.2 µg/mL)
MIC [22]: ≥ 64 µM
MIC [23]: ≥ 64 µM
MIC [24]: ≥ 32 µM
MIC [25]: ≥ 64 µM
MIC [26]: ≥ 64 µM
MIC [10]: 16 µM (≈ 42.2 µg/mL)
MIC [27]: 16 µM (≈ 42.2 µg/mL)
MIC [28]: 32 µM (≈ 84.5 µg/mL)
MIC [29]: ≥ 64 µM
MIC [30]: ≥ 64 µM
MIC [31]: ≥ 64 µM

Now from value to compound, other results behind:

MIC (Escherichia coli K88): 8 µM (≈ 10.3 µg/mL)
MIC [5]: 8 µM (≈ 10.3 µg/mL)
MIC [6]: ≥ 128 µM
MIC [7]: ≥ 128 µM
MIC [8]: ≥ 128 µM
MIC [9]: ≥ 128 µM
MIC [10]: 32 µM (≈ 41 µg/mL)
MIC [11]: 64 µM (≈ 82.1 µg/mL)
MIC [13]: 8 µM (≈ 10.3 µg/mL)
MIC [14]: 64 µM (≈ 82.1 µg/mL)
MIC [15]: > 128 µM
MIC [16]: > 128 µM
MIC [17]: > 128 µM
MIC [18]: ≥ 128 µM
Compound: CC(C)C[C@H](NC(=O)CNC(=O)[C@H](CC(C)C)NC(=O)[C@H](Cc1c[nH]c2ccccc12)NC(=O)[C@H](CC(C)C)NC(=O)CNC(=O)[C@H](CC(C)C)NC(=O)[C@H](CCCCN)NC(=O)[C@@H](N)CCCCN)C(=O)N[C@@H](CCCCN)C(=O)N[C@@H](CCCCN)C(N)=O [KKLGLWLGLKK]
MIC [12]: ≥ 64 µM

MIC (Escherichia coli D31): 0.94 µM (≈ 2.37 µg/mL)
MIC [32]: 1.88 µM (≈ 4.73 µg/mL)
MIC [33]: 1.88 µM (≈ 4.73 µg/mL)
MIC [34]: 0.94 µM (≈ 2.37 µg/mL)
Compound: CC[C@H](C)[C@H](NC(=O)CNC(=O)[C@H](CCCCN)NC(=O)[C@H](Cc1ccccc1)NC(=O)[C@H](CC(C)C)NC(=O)[C@H](CCCCN)NC(=O)[C@H](CCCCN)NC(=O)[C@H](C)NC(=O)[C@H](CCCCN)NC(=O)[C@H](CCCCN)NC(=O)[C@H](Cc1ccccc1)NC(=O)CNC(=O)[C@H](CCCCN)NC(=O)[C@H](C)NC(=O)[C@H](Cc1c[nH]c2ccccc12)NC(=O)[C@@H](NC(=O)[C@H](CCCCN)NC(=O)[C@@H](NC(=O)[C@H](CC(C)C)NC(=O)[C@H](CCCCN)NC(=O)[C@@H](N)CCCCN)[C@@H](C)CC)C(C)C)C(=O)NCC(=O)O [KKLIKVWAKGFKKAKKLFKGIG]

MIC [35]: ≥ 59.4 µM
MIC [36]: 7.39 µM (≈ 11.4 µg/mL)
MIC (Cladosporium sp.): ≥ 59.4 µM
MIC (Cryptococcus neoformans): ≥ 59.4 µM
MIC (Escherichia coli SBS 363): 7.39 µM (≈ 11.4 µg/mL)
MIC (Micrococcus luteus A270): ≥ 59.4 µM
MIC (Penicillium expansum): ≥ 59.4 µM
MIC [10]: 7.39 µM (≈ 11.4 µg/mL)
Compound: CC(C)C[C@H](NC(=O)[C@H](Cc1ccccc1)NC(=O)[C@H](CC(=O)O)NC(=O)CNC(=O)[C@H](CCC(=O)O)NC(=O)CNC(=O)[C@H](CO)NC(=O)[C@H](CC(=O)O)NC(=O)[C@H](C)N)C(=O)N[C@@H](C)C(=O)N[C@@H](CCC(=O)O)C(=O)NCC(=O)NCC(=O)NCC(=O)N[C@H](C(=O)N[C@@H](CCCN=C(N)N)C(=O)O)C(C)C [ADSGEGDFLAEGGGVR]
